{"source": "patent US20240316079A1", "about": "“USE OF AKR1C3-ACTIVATED COMPOUND” (OBI PHARMA, INC., priority 2021, published 2024)", "key": {"[1]": {"biological_target": "T1, recombinant human AKR1C3 (Homo sapiens, UniProt P42330)", "T1 construct": "purchased Abcam (Cambridge, MA)", "T1 sequence (P42330 1-323)": "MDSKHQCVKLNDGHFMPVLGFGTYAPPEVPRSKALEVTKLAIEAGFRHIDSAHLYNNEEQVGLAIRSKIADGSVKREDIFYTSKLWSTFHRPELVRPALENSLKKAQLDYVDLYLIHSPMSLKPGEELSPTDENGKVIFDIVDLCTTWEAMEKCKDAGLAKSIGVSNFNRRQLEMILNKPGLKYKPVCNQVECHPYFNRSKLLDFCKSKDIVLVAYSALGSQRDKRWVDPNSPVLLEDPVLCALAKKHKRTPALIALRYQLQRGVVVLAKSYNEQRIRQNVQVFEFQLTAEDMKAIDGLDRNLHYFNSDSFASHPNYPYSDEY", "assay": "AKR1C3-dependent activation of 3424 (2660 production, LC-MS/MS)", "assay_type": "biochemical", "conditions": "incubation with AKR1C3, n = 3, mean ± SD", "method": "The reaction was incubated at 25° C. and terminated at various time points by adding acetonitrile and methanol (at a ratio of 9 to 1) and subjected for LC-MS/MS analysis. For enzyme kinetic analysis, the activity was determined with a SpectraMax M2^e spectrophotometer (Molecular Devices, LLC, San Jose, CA) by measuring the decrease in absorbance of the NADPH at 340 nm (E=6270 M^−1 cm^−1). After the initiation of the reaction by addition of substrates, the reactions were monitored at 30 s intervals at 25° C. The non-substrate reaction rate was also monitored as background and its slope was used to determine the initial velocity of the reaction. The kinetic data reported were the average of triplicate measurements. For AKR1C3-mediated 3424 metabolism, LC/MS/MS was performed using a Sciex API-4000 Qtrap (ABSciex, LLC, Framingham, MA) mass spectrometer coupled to an Agilent 1200 HPLC system (Agilent Technologies, Santa Clara, CA). […] The column oven temperature was 40° C. and the sample injection volume was 2 μL. The mass spectra were obtained in positive MRM mode. In positive ion mode, the ion spray voltage was set at 4500 V, declustering potential at 80 V, collision energy at 20 V, source temperature at 350° C., curtain gas at 10 psi and the source gas 1 and 2 both at 60 psi. […] For 2660 analysis, normal phase liquid chromatographic separation was performed with Waters Atlantis HILIC Silica column (2.1 mm×100 mm, 3 μm, Waters Corp., Milford, MA) in a total run time of 9 min using a flow rate of 0.3 mL/min. The mobile phase A consisted of 1 mM ammonium formate in water and mobile phase B using ACN. […] The column oven temperature was 40° C. and the sample injection volume was 2 μL. The mass spectra were obtained in negative MRM mode. In negative ion mode, the ion spray voltage was set at −4500 V, declustering potential at −60 V, collision energy at −30 V, source temperature at 350° C., curtain gas at 10 psi and the source gas 1 and 2 both at 60 psi. […] The peak area ratio for each MRM transition (peak area of analyte/peak area of analyte-IS) of calibration standards and samples were used for quantitative analysis using Analyst 1.6 software (ABSciex, Framingham, MA)."}, "[2]": {"biological_target": "T1, recombinant human AKR1C3", "assay": "Kinetic analysis of AKR1C3 towards various substrates (NADPH absorbance 340 nm)", "assay_type": "biochemical", "conditions": "substrate of AKR1C3, 25° C., triplicate", "method": "The reaction was incubated at 25° C. and terminated at various time points by adding acetonitrile and methanol (at a ratio of 9 to 1) and subjected for LC-MS/MS analysis. For enzyme kinetic analysis, the activity was determined with a SpectraMax M2^e spectrophotometer (Molecular Devices, LLC, San Jose, CA) by measuring the decrease in absorbance of the NADPH at 340 nm (E=6270 M^−1 cm^−1). After the initiation of the reaction by addition of substrates, the reactions were monitored at 30 s intervals at 25° C. The non-substrate reaction rate was also monitored as background and its slope was used to determine the initial velocity of the reaction. The kinetic data reported were the average of triplicate measurements."}, "[3]": {"system": "SNU-475", "assay": "In vitro proliferation assay, liver cancer cell line SNU-475", "assay_type": "cell-based", "conditions": "Homo sapiens, 96 hours of drug exposure, AKR1C3 protein high, read-out: 3424 IC50", "method": "(§1) IC50 was calculated as described above."}, "[4]": {"system": "SNU-449", "assay": "In vitro proliferation assay, liver cancer cell line SNU-449", "assay_type": "cell-based", "conditions": "Homo sapiens, 96 hours of drug exposure, AKR1C3 protein high, read-out: 3424 IC50", "method": "as §1"}, "[5]": {"system": "SNU-387", "assay": "In vitro proliferation assay, liver cancer cell line SNU-387", "assay_type": "cell-based", "conditions": "Homo sapiens, 96 hours of drug exposure, AKR1C3 protein Medium, read-out: 3424 IC50", "method": "as §1"}, "[6]": {"system": "PLC/PRF/5", "assay": "In vitro proliferation assay, liver cancer cell line PLC/PRF/5", "assay_type": "cell-based", "conditions": "Homo sapiens, 96 hours of drug exposure, AKR1C3 protein Medium, read-out: 3424 IC50", "method": "as §1"}, "[7]": {"system": "HuCCT1", "assay": "In vitro proliferation assay, liver cancer cell line HuCCT1", "assay_type": "cell-based", "conditions": "Homo sapiens, HuCCT-1, 96 hours of drug exposure, AKR1C3 protein Low, read-out: 3424 IC50", "method": "as §1"}, "[8]": {"system": "SNU-182", "assay": "In vitro proliferation assay, liver cancer cell line SNU-182", "assay_type": "cell-based", "conditions": "Homo sapiens, 96 hours of drug exposure, AKR1C3 protein Low, read-out: 3424 IC50", "method": "as §1"}, "[9]": {"system": "HLF", "assay": "In vitro proliferation assay, liver cancer cell line HLF", "assay_type": "cell-based", "conditions": "Homo sapiens, 96 hours of drug exposure, AKR1C3 protein Low, read-out: 3424 IC50", "method": "as §1"}, "[10]": {"system": "NCIH1755", "assay": "In vitro proliferation assay, NSCLC cell line NCIH1755", "assay_type": "cell-based", "conditions": "Homo sapiens, NCI-H1755, 72 hours of drug exposure, read-out: 3424 IC50", "method": "as §1"}, "[11]": {"system": "NCI-H2110", "assay": "In vitro proliferation assay, NSCLC cell line NCI-H2110", "assay_type": "cell-based", "conditions": "Homo sapiens, 72 hours of drug exposure, read-out: 3424 IC50", "method": "as §1"}, "[12]": {"system": "NCI-H1792", "assay": "In vitro proliferation assay, NSCLC cell line NCI-H1792", "assay_type": "cell-based", "conditions": "Homo sapiens, 72 hours of drug exposure, read-out: 3424 IC50", "method": "as §1"}, "[13]": {"system": "NCIH2106", "assay": "In vitro proliferation assay, NSCLC cell line NCIH2106", "assay_type": "cell-based", "conditions": "Homo sapiens, 72 hours of drug exposure, read-out: 3424 IC50", "method": "as §1"}, "[14]": {"system": "NCI-H23", "assay": "In vitro proliferation assay, NSCLC cell line NCI-H23", "assay_type": "cell-based", "conditions": "Homo sapiens, 72 hours of drug exposure, read-out: 3424 IC50", "method": "as §1"}}, "data": [{"smiles": "C[C@H](OP(=O)(N1CC1)N1CC1)c1ccc([N+](=O)[O-])c(Oc2cccc(C(=O)N(C)C)c2)c1", "note": "[Compound 3424, (S)-1-(3-(3-N,N-dimethylaminocarbonyl)phenoxyl-4-mtrophenyl)-1-ethyl-N,N′-bis(ethylene)phosphoramidate]", "values": [{"measurement": "2660 Concentration", "setting": "[1]; 3424 concentration 10 μM", "result": "10.71 ± 0.53", "unit": "µM"}, {"measurement": "2660 Concentration", "setting": "[1]; 3424 concentration 20 μM", "result": "14.77 ± 1.44", "unit": "µM"}, {"measurement": "2660 Concentration", "setting": "[1]; 3424 concentration 30 μM", "result": "33.96 ± 1.90", "unit": "µM"}, {"measurement": "2660 Concentration", "setting": "[1]; 3424 concentration 40 μM", "result": "34.30 ± 6.63", "unit": "µM"}, {"measurement": "2660 Concentration", "setting": "[1]; 3424 concentration 50 μM", "result": "34.59 ± 7.44", "unit": "µM"}, {"measurement": "Kcat", "setting": "[2]", "result": "0.0107 ± 0.00017", "unit": "s⁻¹"}, {"measurement": "Km", "setting": "[2]; read-out: Km", "result": "12.6 ± 0.28", "unit": "µM"}, {"measurement": "IC50", "setting": "[3]", "result": 15, "unit": "nM"}, {"measurement": "IC50", "setting": "[4]", "result": 45, "unit": "nM"}, {"measurement": "IC50", "setting": "[5]", "result": 103, "unit": "nM"}, {"measurement": "IC50", "setting": "[6]", "result": 167, "unit": "nM"}, {"measurement": "IC50", "setting": "[7]", "result": 696, "unit": "nM"}, {"measurement": "IC50", "setting": "[8]", "result": "> 1000", "unit": "nM"}, {"measurement": "IC50", "setting": "[9]", "result": "> 1000", "unit": "nM"}, {"measurement": "IC50", "setting": "[10]", "result": 8.2, "unit": "nM"}, {"measurement": "IC50", "setting": "[11]", "result": 1.1, "unit": "nM"}, {"measurement": "IC50", "setting": "[12]", "result": 4.5, "unit": "nM"}, {"measurement": "IC50", "setting": "[13]", "result": "> 1000", "unit": "nM"}, {"measurement": "IC50", "setting": "[14]", "result": "> 1000", "unit": "nM"}]}]}
